# Reference: patent publication US12024513B2, “NLRP3 modulators” (INNATE TUMOR IMMUNITY, INC., priority 2018, dated 2024)
# Key:
# Format in all cases: cell-based
# human TLR8 = target: T1, human TLR8 (Homo sapiens, UniProt Q9NR97); assay: In vitro human TLR8 reporter assay (HEK-Blue, NF-kB/AP1-inducible SEAP); details: HEK-Blue cells co-expressing TLR8 and SEAP reporter, 18 h; read-out: TLR8 agonist EC50
# T1 construct: host or cells: human HEK-Blue cells
# T1 sequence (Q9NR97 27-1041): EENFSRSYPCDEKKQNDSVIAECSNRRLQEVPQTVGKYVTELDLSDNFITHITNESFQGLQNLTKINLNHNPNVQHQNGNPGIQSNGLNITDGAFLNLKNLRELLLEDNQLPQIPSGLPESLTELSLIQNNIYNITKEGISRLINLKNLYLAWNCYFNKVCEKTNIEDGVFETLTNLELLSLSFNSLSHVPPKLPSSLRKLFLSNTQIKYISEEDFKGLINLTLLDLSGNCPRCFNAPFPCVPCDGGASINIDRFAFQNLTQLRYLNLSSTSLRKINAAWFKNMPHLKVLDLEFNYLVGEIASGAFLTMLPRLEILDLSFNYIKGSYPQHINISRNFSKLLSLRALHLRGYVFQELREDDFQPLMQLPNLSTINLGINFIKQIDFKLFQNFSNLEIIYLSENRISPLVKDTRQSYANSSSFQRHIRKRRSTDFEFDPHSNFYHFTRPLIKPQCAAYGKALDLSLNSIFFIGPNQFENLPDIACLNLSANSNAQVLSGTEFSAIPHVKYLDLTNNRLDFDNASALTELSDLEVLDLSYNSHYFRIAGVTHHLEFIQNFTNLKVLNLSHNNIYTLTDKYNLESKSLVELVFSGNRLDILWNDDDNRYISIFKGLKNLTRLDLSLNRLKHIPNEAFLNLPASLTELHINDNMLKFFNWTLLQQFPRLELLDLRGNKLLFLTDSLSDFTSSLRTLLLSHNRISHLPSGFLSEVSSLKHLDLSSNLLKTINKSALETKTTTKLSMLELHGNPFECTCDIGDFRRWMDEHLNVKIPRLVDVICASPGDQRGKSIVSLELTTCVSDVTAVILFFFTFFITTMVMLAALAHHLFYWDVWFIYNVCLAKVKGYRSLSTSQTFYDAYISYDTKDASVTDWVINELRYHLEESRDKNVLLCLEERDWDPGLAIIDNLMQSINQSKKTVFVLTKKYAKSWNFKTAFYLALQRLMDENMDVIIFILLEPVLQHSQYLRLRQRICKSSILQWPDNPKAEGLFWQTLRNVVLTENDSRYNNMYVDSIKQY
# Experimental: (§1) In Vitro Human TLR7 and TLR8 Binding Reporter Assays
# (§2) Logarithmically-growing human HEK-Blue cells co-expressing a TLR7 or TLR8 gene and a NF-kB/AP1-inducible SEAP (secreted embryonic alkaline phosphatase; Invivogen, San Diego, CA) reporter gene are added to individual wells of a 384-well plate (15,000 cells per 20 μL per well) and maintained for 24 h at 37° C. 5% CO2. Test compounds or DMSO are distributed to separate wells the next day using acoustic liquid handling technology (100 nL per well) and cells are subsequently incubated for 18 h at 37° C. 5% CO2. Cellular SEAP production is measured using an Envision plate reader instrument thirty minutes after adding freshly-made Quanti-Blue reagent (prepared by following manufacturer instructions; Invivogen, San Diego, CA) to the HEK-Blue TLR Nf-kB-SEAP cell reactions. All EC50 values (half-maximal effective concentration) are determined using proprietary data analysis software. Normalized EC50 value=absolute value determined by setting 100% Ymax using a reference standard RLU (relative light unit) values from cells treated with 50 μM of the reference standard.
# NLRP3 = target: T2, NLRP3 (Homo sapiens, UniProt Q96P20); assay: Measurement of IL-1β production in PMA-differentiated THP-1 cells (NLRP3 hIL1B); details: one or more of the described procedures
# T2 construct: host or cells: THP-1 cells, PMA-differentiated
# Experimental: Measurement of IL-1β Production in PMA-Differentiated THP-1 Cells
# THP-1 cells were purchased from the American Type Culture Collection and sub-cultured according to instructions from the supplier. Prior to experiments, cells were cultured in RPMI 1640 containing 10% heat inactivated FBS, penicillin (100 units/ml) and streptomycin (100 μg/ml), and maintained in log phase prior to experimental setup. Prior to the experiment THP-1 were treated with PMA (Phorbol 12-myristate 13-acetate) (10 μg/ml) for 24 hours. The day of the experiment the media was removed and attaching cells were treated with trypsin for 2 minutes, cells were then collected, washed with PBS (phosphate buffer saline), spin down, resuspended in 2% heat inactivated FBS with RPMI at a concentration of 1×10^6 cells/ml, and 100 μl was plated in a 96 well plate. Compounds were dissolved in dimethyl sulfoxide (DMSO) and added to the culture medium to achieve desired concentration (e.g. 100, 30, 10, 3, 1, 0.3 or 0.1 μM). Cells were incubated with compounds for 4 hours. Cell free supernatant was collected and the production of IL-1β was evaluated by ELISA. A vehicle only control was run concurrently with each experiment. Final DMSO concentration was 1%.
# Measurement of IL-1β Production in PMA-Differentiated THP-1 Cells (Alternative Procedure)
# THP-1 cells were purchased from the American Type Culture Collection and sub-cultured according to instructions from the supplier. Prior to experiments, cells were cultured in RPMI 1640 containing 10% heat inactivated FBS, penicillin (100 units/ml), streptomycin (100 μg/ml), HEPES (10 mM) and sodium pyruvate (1 mM) and maintained in log phase prior to experimental setup. Prior to the experiment, THP-1 cells were treated with PMA (Phorbol 12-myristate 13-acetate) (20 μg/ml) overnight. The day of the experiment, the media was removed and attached cells were treated with trypsin for 2 minutes, cells were then collected, washed with PBS (phosphate buffer saline), pelleted by centrifugation and resuspended in 2% heat inactivated FBS with RPMI at a concentration of 50,000 cells/well in a 384 well plate. Cell free supernatant was collected and the production of IL-1β was evaluated by ELISA. Compounds were dissolved in dimethyl sulfoxide (DMSO) and added to the culture medium to achieve desired concentration (e.g. 100, 30, 10, 3, 1, 0.3 or 0.1 μM). Cells were incubated with compounds for 2 hours. A vehicle only control was run concurrently with each experiment. Final DMSO concentration was 1%.
# Measurement of IL-1β Production—hTRF Protocol (Second Alternative Procedure)
# Serial dilutions of compounds in DMSO were added to low volume 384 well plates at 100 nl/well using an ECHO 550 acoustic dispenser (Labcyte) to achieve final starting concentration of 10 μM in assay.
# THP-1 cells in RPMI (Gibco, 11875) media with 10% FBS at a density of 1×10^6 cell/ml in a T175 flask were treated with a final concentration of phorbol 12-myristate 13-acetate (PMA) (Sigma, PI585) of 50 ng/ml overnight at 37° C. at 5% CO2 for differentiation. Cells were harvested the next day after rinsing well wth dPBS using 0.5% trypsin. A cell solution was prepared of 1×10^6 cells/ml for 50,000 cells in 50 μl/well in RPMI media with 2% FBS. Cells were plated using a multichannel pipette onto the compound dilutions in Greiner, 384 well, black clear bottom tissue culture treated plates (781090). The plates were incubated in 37° C. incubator at 5% CO2 for 2 hours.
# After the 2 hour incubation, the cell plates were spun in the centrifuge for 5 minutes at 1200 rpm. Using the Felix (CyBio), 8 μl of the supernatant was transferred to 384 well, low volume, white proxy plates. (Perkin Elmer, 6008230). A human ILlbeta hTRF kit was used to analyze the supernatant (CISBIO, 62HIL1BPEG). The kit instructions were followed for preparing the IL1Beta standard curve and then the antibodies from the kit were diluted 1:40 rather than 1:20 as kit instructed. […]
# human TLR7 = target: T3, human TLR7 (Homo sapiens, UniProt Q9NYK1); assay: In vitro human TLR7 reporter assay (HEK-Blue, NF-kB/AP1-inducible SEAP); details: HEK-Blue cells co-expressing TLR7 and SEAP reporter, 18 h; read-out: TLR7 agonist EC50
# T3 construct: host or cells: human HEK-Blue cells
# T3 sequence (Q9NYK1 27-1049): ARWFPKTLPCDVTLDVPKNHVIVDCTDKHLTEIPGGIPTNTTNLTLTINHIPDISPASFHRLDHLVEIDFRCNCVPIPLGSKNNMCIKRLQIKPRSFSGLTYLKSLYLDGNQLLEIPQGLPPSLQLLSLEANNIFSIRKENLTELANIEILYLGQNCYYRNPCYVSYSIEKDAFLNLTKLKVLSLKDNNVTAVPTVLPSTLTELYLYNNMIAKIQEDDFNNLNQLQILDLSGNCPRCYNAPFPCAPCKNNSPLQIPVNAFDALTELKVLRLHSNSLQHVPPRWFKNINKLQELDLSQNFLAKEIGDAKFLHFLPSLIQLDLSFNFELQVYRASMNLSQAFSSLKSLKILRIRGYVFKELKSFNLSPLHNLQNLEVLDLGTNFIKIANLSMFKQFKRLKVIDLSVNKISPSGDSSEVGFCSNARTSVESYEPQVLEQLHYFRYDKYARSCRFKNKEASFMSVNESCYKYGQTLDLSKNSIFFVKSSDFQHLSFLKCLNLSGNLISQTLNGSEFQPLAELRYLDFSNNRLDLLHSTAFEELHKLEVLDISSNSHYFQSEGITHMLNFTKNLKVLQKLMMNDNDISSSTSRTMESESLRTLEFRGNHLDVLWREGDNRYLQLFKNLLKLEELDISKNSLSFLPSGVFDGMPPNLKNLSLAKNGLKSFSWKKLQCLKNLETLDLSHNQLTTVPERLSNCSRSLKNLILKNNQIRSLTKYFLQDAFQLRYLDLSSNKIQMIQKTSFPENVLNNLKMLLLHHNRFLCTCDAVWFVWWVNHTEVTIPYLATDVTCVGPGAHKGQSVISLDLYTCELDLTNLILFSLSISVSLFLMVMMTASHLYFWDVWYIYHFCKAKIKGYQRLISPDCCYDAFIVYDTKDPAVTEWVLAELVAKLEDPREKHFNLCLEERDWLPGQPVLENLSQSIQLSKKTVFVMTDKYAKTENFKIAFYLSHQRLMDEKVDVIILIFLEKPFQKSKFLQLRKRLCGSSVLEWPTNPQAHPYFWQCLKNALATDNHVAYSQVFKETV
# Experimental: as §1, §2
# T2 sequence (Q96P20 whole entry): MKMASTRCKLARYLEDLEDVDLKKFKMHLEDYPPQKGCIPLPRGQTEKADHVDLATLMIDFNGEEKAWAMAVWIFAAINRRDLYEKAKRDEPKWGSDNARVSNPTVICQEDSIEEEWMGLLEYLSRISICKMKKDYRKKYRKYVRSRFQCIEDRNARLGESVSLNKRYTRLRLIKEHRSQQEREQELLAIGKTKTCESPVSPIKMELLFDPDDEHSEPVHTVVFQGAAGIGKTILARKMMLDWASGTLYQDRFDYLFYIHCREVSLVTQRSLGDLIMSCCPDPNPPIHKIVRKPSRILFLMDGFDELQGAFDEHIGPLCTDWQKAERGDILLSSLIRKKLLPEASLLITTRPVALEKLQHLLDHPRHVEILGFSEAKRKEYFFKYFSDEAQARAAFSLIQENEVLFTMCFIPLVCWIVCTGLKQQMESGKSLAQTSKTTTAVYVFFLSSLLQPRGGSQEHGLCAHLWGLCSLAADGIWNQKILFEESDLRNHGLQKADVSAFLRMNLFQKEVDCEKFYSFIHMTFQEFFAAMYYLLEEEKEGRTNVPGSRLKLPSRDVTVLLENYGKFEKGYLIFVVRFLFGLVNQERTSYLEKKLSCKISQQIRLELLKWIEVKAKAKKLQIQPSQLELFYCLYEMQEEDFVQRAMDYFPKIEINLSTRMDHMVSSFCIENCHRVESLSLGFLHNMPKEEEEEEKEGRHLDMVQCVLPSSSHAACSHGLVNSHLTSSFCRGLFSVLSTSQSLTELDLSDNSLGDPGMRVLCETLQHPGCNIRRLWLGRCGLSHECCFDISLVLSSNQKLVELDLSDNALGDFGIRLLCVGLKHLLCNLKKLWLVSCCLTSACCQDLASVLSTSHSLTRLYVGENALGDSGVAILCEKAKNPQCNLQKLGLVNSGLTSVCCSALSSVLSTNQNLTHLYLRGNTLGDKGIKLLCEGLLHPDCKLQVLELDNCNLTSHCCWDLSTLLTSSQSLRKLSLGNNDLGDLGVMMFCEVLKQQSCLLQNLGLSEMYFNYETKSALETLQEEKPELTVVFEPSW
SMILES,EC50 (human TLR8) [nM],IC50 (NLRP3) [nM],EC50 (human TLR7) [nM]
Nc1nc2cc(-c3cc[nH]n3)ccc2c2c1nc(CNC(=O)C1CCCCO1)n2CC(F)F (centres unmarked) [Example 19],20000 to 100000,790,20000 to 100000
Nc1nc2cc(-c3cc[nH]n3)ccc2c2c1nc(CCNC(=O)c1ccc(F)cn1)n2CC(F)F [Example 4],–,340,–
Nc1nc2cc(-c3cc[nH]n3)ccc2c2c1nc(CCNC(=O)C1CCCCO1)n2CC(F)F (centres unmarked) [Example 17],–,1320,–
CC(C)n1c(CCNC(=O)C2CCCO2)nc2c(N)nc3cc(-c4cc[nH]n4)ccc3c21 (centres unmarked) [Example 18],–,1940,–
Nc1nc2cc(-c3cc[nH]n3)ccc2c2c1nc(CNC(=O)C1CCCO1)n2CC(F)F (centres unmarked) [Example 20],–,1880,–
Nc1nc2cc(-c3cc[nH]n3)ccc2c2c1nc(CCNC(=O)c1csc(Cl)n1)n2CC(F)F [Example 11],–,590,–
COc1ccc(C(=O)NCCc2nc3c(N)nc4cc(-c5cc[nH]n5)ccc4c3n2C(C)C)nc1 [Example 12],–,270,–
Nc1nc2cc(-c3cc[nH]n3)ccc2c2c1nc(CCNC(=O)c1ccccn1)n2C1CC1 [Example 5],–,440,–
Nc1nc2cc(-c3cc[nH]n3)ccc2c2c1nc(CCNC(=O)c1ccccn1)n2CC(F)F [Example 3],–,220,–
CC(C)n1c(CNC(=O)C2CCCCO2)nc2c(N)nc3cc(-c4cc[nH]n4)ccc3c21 (centres unmarked) [Example 15],–,270,–
CC(C)n1c(CNC(=O)c2ccccn2)nc2c(N)nc3cc(-c4cc[nH]n4)ccc3c21 [Example 14],20000 to 100000,240,–
Nc1nc2cc(-c3cc[nH]n3)ccc2c2c1nc(CCNC(=O)c1ccc(F)cn1)n2C1CC1 [Example 8],–,270,–
COc1ccc(C(=O)NCCc2nc3c(N)nc4cc(-c5cc[nH]n5)ccc4c3n2C2CC2)nc1 [Example 13],–,1240,–
Nc1nc2cc(-c3cc[nH]n3)ccc2c2c1nc(CCNC(=O)c1ccccn1)n2C1CCC1 [Example 6],–,410,–

# More lines, in order of falling IC50 (NLRP3), values ahead:
EC50 (human TLR8) [nM],IC50 (NLRP3) [nM],EC50 (human TLR7) [nM],SMILES
–,220,–,CC(C)n1c(CNC(=O)C2CCCO2)nc2c(N)nc3cc(-c4cc[nH]n4)ccc3c21 (centres unmarked) [Example 16]
–,180,–,COc1ccc(C(=O)NCCc2nc3c(N)nc4cc(-c5cc[nH]n5)ccc4c3n2C2CCC2)nc1 [Example 7]
–,160,–,CC(C)n1c(CCNC(=O)c2csc(Cl)n2)nc2c(N)nc3cc(-c4cc[nH]n4)ccc3c21 [Example 10]
–,120,–,CC(C)n1c(CCNC(=O)c2ccc(F)cn2)nc2c(N)nc3cc(-c4cc[nH]n4)ccc3c21 [Example 9]
–,120,–,"Nc1nc2cc(-c3cc[nH]n3)ccc2c2c1nc(CCNC(=O)c1ccc(F)cn1)n2C1CCC1 [Example 1, N-{2-[4-amino-1-cyclobutyl-7-(1H-pyrazol-5-yl)-1H-imidazo[4,5-c]quinolin-2-yl]ethyl}-5-fluoropyridine-2-carboxamide]"
–,70,–,CC(C)n1c(CCNC(=O)c2ccccn2)nc2c(N)nc3cc(-c4cc[nH]n4)ccc3c21 [Example 2]
